Results: US12509460B2 (Skyhawk Therapeutics, Inc., priority 2019, dated 2025)
Read-outs that look alike come from different tables or passages of the source.

Experiments:
[1] = tested on: mHTT protein in GM04724 (CAG 70/20) Huntington's disease patient lymphoblast cells; experiment: mHTT protein assay, 2B7-MW1 assay via Mesoscale Discovery (MSD); assay type: cell-based, human; details: GM04724 Huntington's disease patient lymphoblasts
Procedure, shortened: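 Signal from the 2B7-MW1 antibody pair on MSD, rising with polyQ length and smaller HTT fragments, measured mHTT after 48 h compound exposure (0.6 nM–10 μM) in GM04724 cells. A parallel replicate plate gave CellTiter Glo viability.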

[2] = tested on: SMN FL and SMN Δ7 in spinal muscular atrophy (SMA) patient fibroblasts (GM03813, Coriell); experiment: Quantitative splicing assay (SMN), qPCR; assay type: cell-based, human; details: SMA patient fibroblasts GM03813, 24 h, qPCR, read-out: SMN2 Splicing FL EC50
Method: Spinal muscular atrophy (SMA) patient fibroblasts (GM03813, Coriell) are plated in 96-well plates at 50,000 cells/well. […] Treated cells are lysed and cDNA synthesized using the Fast Advanced Cells-to-Ct kit (Thermofisher A35378) according to the manufacturer's instructions. 2 μL of each cDNA are used in qPCR reactions. […] Reactions are run in a Quant Studio 6 qPCR instrument with default settings.

[3] = tested on: SMN protein in spinal muscular atrophy (SMA) patient fibroblasts (GM03813, Coriell); experiment: SMN protein assay, Mesoscale Discovery (MSD); assay type: cell-based, human; details: SMA patient fibroblasts GM03813, 48 hours, MSD; read-out: SMN2 protein EC50
Procedure, shortened: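 Absolute SMN levels were quantified by MSD against an SMN protein standard curve (1 μg/ml to 19.5 pg/ml) run on each plate. Samples were lysates of GM03813 patient fibroblasts (7000 cells/well) treated 48 hours with compound doses from 2.5 μM down to 0.6 nM.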

MDR1 (P-gp) = experiment: Blood-brain-barrier (BBB) penetration potential via MDCK-MDR1 permeability assay; details: dog; for Papp A→B at 120 min, 5 μM: MDCK-MDR1, pH 7.4, MDCK-MDR1: Papp A-B, A-B direction; for Papp B→A at 120 min, 5 μM: MDCK-MDR1, pH 7.4, MDCK-MDR1: Papp B-A, B-A direction
[4] = tested on: MDR1-MDCK cell monolayers; experiment: as above; details: for MDCK-MDR1: % Recov A-B: A-B direction; for MDCK-MDR1: % Recov B-A: B-A direction
MDR1 = experiment: as above; details: dog, MDCK-MDR1, pH 7.4, MDCK-MDR1: Efflux, efflux ratio

Compound | EC50 [1] [nM] | EC50 [2] [nM] | EC50 [3] [nM] | Papp A→B at 120 min, 5 μM (MDR1 (P-gp)) [×10⁻⁶ cm/s] | Papp B→A at 120 min, 5 μM (MDR1 (P-gp)) [×10⁻⁶ cm/s] | MDCK-MDR1: % Recov A-B [4] [%] | MDCK-MDR1: % Recov B-A [4] [%] | efflux ratio at 120 min, 5 μM (MDR1) | EC50 ([2]; Homo sapiens, Fibroblast, 24 h) [nM]
COc1cc(-c2ccc(-c3ccc(N(C)[C@H]4CC5N[C@@H](C4)CC5(F)F)nn3)c(O)c2)cnn1 (single isomer, unassigned) [Compound 2A] | 16 to 50 | 16 to 50 | 16 to 50 | 11.3 | 39 | 54 | 81 | 3 | 
Cc1ccc(-c2ccc(-c3ccc(N(C)[C@@H]4C[C@H]5CC[C@H](N5)[C@@H]4F)nn3)c(O)c2)nn1 (single isomer, unassigned) [Compound 25A] | 101 to 500 |  | 0.01 to 15 | 1.79 | 55 | 99 | 99 | 31 | 101 to 500
CC#Cc1ccc(-c2ccc(N(C)[C@@H]3C[C@H]4CC[C@H](N4)[C@@H]3F)nn2)c(O)c1 (single isomer, unassigned) [Compound 30A] | 16 to 50 |  | 0.01 to 15 | 11.1 | 19.7 | 35 | 55 | 2 | 51 to 100
CNC(=O)c1ccc(-c2ccc(N(C)[C@H]3C[C@@H]4CC[C@@H](N4)[C@H]3F)nn2)c(O)c1 (single isomer, unassigned) [Compound 77B] | 101 to 500 |  | 101 to 500 | 0.28 | 40.3 | 102 | 106 | 144 | 51 to 100
CN(c1ccc(-c2cc3oc(=O)n(C)c3cc2O)nn1)[C@H]1C[C@@H]2CC[C@@H](N2)[C@H]1F (single isomer, unassigned) [Compound 79B] | 51 to 100 |  | 16 to 50 | 2.69 | 42.9 | 90 | 99 | 16 | 101 to 500
CN(C)C(=O)c1cc2cc(O)c(-c3ccc(N(C)[C@@H]4C[C@H]5CC[C@H](N5)[C@@H]4F)nn3)cc2o1 [Compound 9A, 6-(6-(((1S,2S,3R,5R)-2-fluoro-8-azabicyclo[3.2.1]octan-3-yl)(methyl)amino)pyridazin-3-yl)-5-hydroxy-N,N-dimethylbenzofuran-2-carboxamide] | 51 to 100 |  | 0.01 to 15 | 0.76 | 61.1 | 108 | 111 | 80 | 16 to 50
CN(C)C(=O)c1cc2cc(O)c(-c3ccc(N(C)[C@H]4C[C@@H]5CC[C@@H](N5)[C@H]4F)nn3)cc2o1 [Compound 9B, 6-(6-(((1R,2R,3S,5S)-2-fluoro-8-azabicyclo[3.2.1]octan-3-yl)(methyl)amino)pyridazin-3-yl)-5-hydroxy-N,N-dimethylbenzofuran-2-carboxamide] | 101 to 500 |  | 16 to 50 | 0.62 | 48.2 | 88 | 100 | 78 | 101 to 500
CN(c1ccc(-c2ccc(-n3ccnc3)cc2O)nn1)[C@@H]1C[C@H]2CCC[C@H](N2)[C@@H]1F [Compound 11A, 2-(6-(((1S,2S,3R,5R)-2-fluoro-9-azabicyclo[3.3.1]nonan-3-yl)(methyl)amino)pyridazin-3-yl)-5-(1H-imidazol-1-yl)phenol] | 0.01 to 15 |  | 0.01 to 15 | 2.76 | 53.2 | 79 | 90 | 19 | 51 to 100
CN(c1ccc(-c2ccc(-c3cnn(C)c3)cc2O)nn1)[C@H]1C[C@@H]2CCC[C@@H](N2)[C@H]1F [Compound 15B, 2-(6-(((1R,2R,3S,5S)-2-fluoro-9-azabicyclo[3.3.1]nonan-3-yl)(methyl)amino)pyridazin-3-yl)-5-(1-methyl-1H-pyrazol-4-yl)phenol] | 0.01 to 15 |  | 0.01 to 15 | 3.21 | 39.3 | 62 | 84 | 12 | 0.01 to 15
COc1cn(-c2ccc(-c3ccc(N(C)[C@@H]4C[C@H]5CC(F)(F)[C@@H](C4)N5)nn3)c(O)c2)cn1 [Compound 19A, 2-(6-(((1S,3R,5R)-6,6-difluoro-8-azabicyclo[3.2.1]octan-3-yl)(methyl)amino)pyridazin-3-yl)-5-(4-methoxy-1H-imidazol-1-yl)phenol] | 51 to 100 |  | 0.01 to 15 | 10.1 | 56.6 | 81 | 94 | 6 | 51 to 100
CN(c1ccc(-c2ccc(-c3cnn(C(F)F)c3)cc2O)nn1)[C@@H]1C[C@H]2CCC[C@H](N2)[C@@H]1F [Compound 21A, 5-(1-(difluoromethyl)-1H-pyrazol-4-yl)-2-(6-(((1S,2S,3R,5R)-2-fluoro-9-azabicyclo[3.3.1]nonan-3-yl)(methyl)amino)pyridazin-3-yl)phenol] | 16 to 50 |  | 0.01 to 15 | 1.99 | 19.3 | 34 | 71 | 10 | 51 to 100
CN(c1ccc(-c2ccc(-c3ccccn3)cc2O)nn1)[C@@H]1C[C@H]2CCC[C@H](N2)[C@@H]1F [Compound 23A, 2-(6-(((1S,2S,3R,5R)-2-fluoro-9-azabicyclo[3.3.1]nonan-3-yl)(methyl)amino)pyridazin-3-yl)-5-(pyridin-2-yl)phenol] | 51 to 100 |  | 16 to 50 | 3.33 | 34.9 | 64 | 83 | 10 | 51 to 100
Cc1ccc(-c2ccc(-c3ccc(N(C)[C@@H]4C[C@H]5CCC[C@H](N5)[C@@H]4F)nn3)c(O)c2)nn1 [Compound 27A, 2-(6-(((1S,2S,3R,5R)-2-fluoro-9-azabicyclo[3.3.1]nonan-3-yl)(methyl)amino)pyridazin-3-yl)-5-(6-methylpyridazin-3-yl)phenol] | 101 to 500 |  | 0.01 to 15 | 1.08 | 46.6 | 90 | 86 | 43 | 51 to 100
